In ChEMBL document CHEMBL1201862, “PubChem BioAssay data set” (2004):
Activity calls are given as the source filed them.

Experiments:
[1] = biological target: T1, Caspase-6 (Homo sapiens, UniProt P55212); assay: human caspase-6 inhibitors, dose response, biochemical, VEID-R110 fluorescence, cherry-pick (AID 720632)
T1 sequence (P55212 whole entry): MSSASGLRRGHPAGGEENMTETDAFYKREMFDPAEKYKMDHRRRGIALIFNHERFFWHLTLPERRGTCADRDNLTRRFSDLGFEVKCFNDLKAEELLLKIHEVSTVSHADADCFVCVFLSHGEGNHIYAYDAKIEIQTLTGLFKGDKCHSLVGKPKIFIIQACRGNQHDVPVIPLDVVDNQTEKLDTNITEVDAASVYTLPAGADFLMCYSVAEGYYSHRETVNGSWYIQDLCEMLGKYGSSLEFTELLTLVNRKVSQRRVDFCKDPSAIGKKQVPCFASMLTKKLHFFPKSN

[2] = biological target: T2, Oxysterols receptor LXR-beta (Homo sapiens, UniProt P55055); assay: LXR agonists, Gal4 luciferase reporter, dose response, counter-screen for ssDAF-12 agonist project, cell-based, luminescence, HEK293, S. stercoralis campaign (AID 720737); type: functional; settings: read-out: IC50 (the source's name)
T2 sequence (P55055 whole entry): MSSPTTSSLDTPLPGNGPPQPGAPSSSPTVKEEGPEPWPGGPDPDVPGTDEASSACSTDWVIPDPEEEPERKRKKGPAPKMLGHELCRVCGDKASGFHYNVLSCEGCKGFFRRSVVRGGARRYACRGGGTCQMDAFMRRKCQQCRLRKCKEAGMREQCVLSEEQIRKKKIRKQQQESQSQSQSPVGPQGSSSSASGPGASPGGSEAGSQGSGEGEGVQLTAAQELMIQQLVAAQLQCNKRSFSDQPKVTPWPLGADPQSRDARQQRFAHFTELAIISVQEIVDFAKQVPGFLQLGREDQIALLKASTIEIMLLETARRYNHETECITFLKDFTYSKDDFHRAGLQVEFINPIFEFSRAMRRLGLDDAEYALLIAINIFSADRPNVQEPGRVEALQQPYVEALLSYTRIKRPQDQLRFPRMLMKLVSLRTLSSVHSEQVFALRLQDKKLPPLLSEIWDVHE

[3] = biological target: T3, Heat shock factor protein 1 (Mus musculus, UniProt P38532); assay: HSF1 potentiators in luciferase reporter cells, confirmation, cell-based, NIH3T3, luminescence, dose retest (AID 435004); type: functional;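 note: stress induced by proteasome inhibitor MG132 added 30 min after compound; luciferase reporter driven by HSF1 response element in NIH3T3 cells; actives raise luminescence as potentiators of the MG132 stress response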
T3 sequence (P38532 whole entry): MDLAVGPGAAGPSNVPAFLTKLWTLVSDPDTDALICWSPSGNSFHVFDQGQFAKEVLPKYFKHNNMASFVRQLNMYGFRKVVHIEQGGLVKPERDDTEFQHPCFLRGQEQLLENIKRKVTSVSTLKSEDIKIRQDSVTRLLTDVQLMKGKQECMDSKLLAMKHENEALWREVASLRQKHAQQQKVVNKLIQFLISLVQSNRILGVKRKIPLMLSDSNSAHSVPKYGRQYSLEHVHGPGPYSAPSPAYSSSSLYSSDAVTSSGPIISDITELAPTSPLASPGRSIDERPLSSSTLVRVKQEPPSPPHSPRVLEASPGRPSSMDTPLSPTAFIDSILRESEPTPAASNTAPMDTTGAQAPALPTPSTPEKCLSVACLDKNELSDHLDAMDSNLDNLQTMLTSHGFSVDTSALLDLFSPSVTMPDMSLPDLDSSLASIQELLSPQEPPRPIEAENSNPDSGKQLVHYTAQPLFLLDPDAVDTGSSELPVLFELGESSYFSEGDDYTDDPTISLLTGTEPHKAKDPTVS

[4] = Luminescence-based cell-based high throughput dose response assay to identify activators of the DAF-12 from the parasite S. stercoralis (ssDAF-12).; type: functional
[5] = ADAM10 protease inhibitors, dose response, selectivity assay for ADAM17 exosite inhibitor project, biochemical, FRET peptide substrate, recombinant human ADAM10 (AID 743259);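 note: ADAM10 enzyme cleaving a FRET peptide substrate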
[6] = biological target: Disintegrin and metalloproteinase domain-containing protein 17 (Homo sapiens, UniProt P78536); assay: exosite inhibitors of ADAM17, dose response, biochemical (AID 743260)
[7] = cells
[8] = biological target: T2, Oxysterols receptor LXR-beta; type: functional, cell-based
[9] = biological target: T4, Sentrin-specific protease 6 (Homo sapiens, UniProt Q9GZR1); type: functional;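 note: Luminescence-based dose-response confirmatory assay of SENP6 inhibition, following up an ultra-high-throughput screen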
T4 sequence (Q9GZR1 whole entry): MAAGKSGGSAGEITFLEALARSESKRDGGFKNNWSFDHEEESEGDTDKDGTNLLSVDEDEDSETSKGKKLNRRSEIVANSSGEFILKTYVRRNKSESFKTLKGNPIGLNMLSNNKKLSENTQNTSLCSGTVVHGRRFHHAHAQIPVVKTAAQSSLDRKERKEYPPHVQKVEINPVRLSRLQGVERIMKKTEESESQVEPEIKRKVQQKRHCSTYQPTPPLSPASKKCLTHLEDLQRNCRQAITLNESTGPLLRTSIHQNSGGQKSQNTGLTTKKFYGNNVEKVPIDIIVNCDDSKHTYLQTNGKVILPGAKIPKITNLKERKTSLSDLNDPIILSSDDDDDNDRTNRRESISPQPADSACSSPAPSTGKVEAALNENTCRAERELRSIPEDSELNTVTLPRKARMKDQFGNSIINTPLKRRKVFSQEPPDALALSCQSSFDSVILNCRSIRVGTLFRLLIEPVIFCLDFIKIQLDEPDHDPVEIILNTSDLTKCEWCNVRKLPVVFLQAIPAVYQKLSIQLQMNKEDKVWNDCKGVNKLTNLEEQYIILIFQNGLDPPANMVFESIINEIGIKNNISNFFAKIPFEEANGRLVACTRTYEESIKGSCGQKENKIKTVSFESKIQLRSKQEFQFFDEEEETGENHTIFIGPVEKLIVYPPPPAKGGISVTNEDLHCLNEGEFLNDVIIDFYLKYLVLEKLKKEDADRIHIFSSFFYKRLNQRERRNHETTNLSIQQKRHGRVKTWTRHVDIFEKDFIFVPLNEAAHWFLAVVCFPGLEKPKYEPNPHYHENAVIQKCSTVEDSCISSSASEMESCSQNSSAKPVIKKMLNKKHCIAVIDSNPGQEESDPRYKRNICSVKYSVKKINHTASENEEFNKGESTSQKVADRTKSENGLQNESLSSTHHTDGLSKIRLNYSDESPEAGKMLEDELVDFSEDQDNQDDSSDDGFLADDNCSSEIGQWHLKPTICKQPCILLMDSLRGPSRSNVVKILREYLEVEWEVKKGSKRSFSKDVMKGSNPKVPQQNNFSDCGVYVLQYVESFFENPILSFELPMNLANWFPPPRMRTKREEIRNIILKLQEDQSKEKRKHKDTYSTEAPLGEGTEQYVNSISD

[10] = biological target: T5, Sentrin-specific protease 8 (Homo sapiens, UniProt Q96LD8); type: functional;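 note: luminescence read-out of SENP8 inhibition, dose-response confirmation following an ultra-high-throughput screen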
T5 sequence (Q96LD8 whole entry): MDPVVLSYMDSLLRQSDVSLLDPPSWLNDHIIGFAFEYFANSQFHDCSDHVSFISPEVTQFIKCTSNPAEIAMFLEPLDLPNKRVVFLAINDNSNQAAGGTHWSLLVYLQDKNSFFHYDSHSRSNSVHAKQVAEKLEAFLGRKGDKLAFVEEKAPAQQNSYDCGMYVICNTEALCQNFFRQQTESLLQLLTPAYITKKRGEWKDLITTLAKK

[11] = biological target: T6, Sentrin-specific protease 7 (Homo sapiens, UniProt Q9BQF6); type: functional;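 note: Luminescence-based dose-response confirmation of ultra-high-throughput screening hits, measuring inhibition of SENP7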
T6 sequence (Q9BQF6 whole entry): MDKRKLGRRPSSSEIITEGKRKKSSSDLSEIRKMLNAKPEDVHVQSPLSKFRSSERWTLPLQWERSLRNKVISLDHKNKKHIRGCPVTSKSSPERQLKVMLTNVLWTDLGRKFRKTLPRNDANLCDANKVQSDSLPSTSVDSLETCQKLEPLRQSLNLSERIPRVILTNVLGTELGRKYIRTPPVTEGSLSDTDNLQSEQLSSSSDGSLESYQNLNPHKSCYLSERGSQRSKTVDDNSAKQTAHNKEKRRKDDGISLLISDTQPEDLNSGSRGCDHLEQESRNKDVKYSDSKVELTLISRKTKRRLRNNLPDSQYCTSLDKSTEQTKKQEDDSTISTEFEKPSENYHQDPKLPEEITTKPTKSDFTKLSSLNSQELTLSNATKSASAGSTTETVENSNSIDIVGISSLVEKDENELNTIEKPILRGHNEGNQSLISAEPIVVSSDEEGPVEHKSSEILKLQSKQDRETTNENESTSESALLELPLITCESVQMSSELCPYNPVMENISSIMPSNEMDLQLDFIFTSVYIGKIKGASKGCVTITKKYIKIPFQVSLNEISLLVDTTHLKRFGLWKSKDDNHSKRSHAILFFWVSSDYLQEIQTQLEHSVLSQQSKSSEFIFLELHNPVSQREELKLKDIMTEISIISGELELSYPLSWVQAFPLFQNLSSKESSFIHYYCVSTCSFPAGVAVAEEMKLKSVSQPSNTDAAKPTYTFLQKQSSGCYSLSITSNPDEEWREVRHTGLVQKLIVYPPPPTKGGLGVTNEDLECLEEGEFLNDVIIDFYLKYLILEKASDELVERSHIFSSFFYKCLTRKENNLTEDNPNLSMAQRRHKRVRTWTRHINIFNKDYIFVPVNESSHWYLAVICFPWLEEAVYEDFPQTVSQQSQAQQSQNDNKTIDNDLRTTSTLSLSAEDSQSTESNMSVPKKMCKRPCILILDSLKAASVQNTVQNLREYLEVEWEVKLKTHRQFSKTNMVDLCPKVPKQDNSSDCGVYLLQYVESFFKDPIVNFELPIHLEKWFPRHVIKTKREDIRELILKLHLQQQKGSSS

[12] = biological target: T7, Caspase-3 (Homo sapiens, UniProt P42574); type: functional;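 note: Dose-response selectivity test against caspase-3 for candidate inhibitors of sentrin-specific proteases (SENPs)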
T7 sequence (P42574 whole entry): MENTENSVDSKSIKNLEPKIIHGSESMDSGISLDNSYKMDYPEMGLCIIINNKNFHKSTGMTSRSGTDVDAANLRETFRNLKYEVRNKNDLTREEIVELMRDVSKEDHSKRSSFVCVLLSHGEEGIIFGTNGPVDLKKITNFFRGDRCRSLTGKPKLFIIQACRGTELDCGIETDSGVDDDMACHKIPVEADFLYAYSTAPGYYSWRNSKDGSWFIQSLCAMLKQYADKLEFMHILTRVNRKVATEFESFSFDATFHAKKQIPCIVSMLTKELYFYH

[13] = LGR2 antagonists, dose response, cell-based, HEK293, CRE-luciferase reporter, cherry pick, set 2 (AID 743343); type: functional;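 note: transfected cells were stimulated with diluted bursicon conditioned medium after compound addition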
[14] = MC4R antagonists, dose response, counter-screen for LGR2 antagonist project, cell-based, plate reader, cherry pick (AID 743444); type: functional;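 note: transfected HEK 293 cells stimulated with alpha-MSH peptide; potency of inhibitors of the alpha-MSH evoked signal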
[15] = A549 cell cytotoxicity, dose response, cytotoxicity control, plate reader, cherry-pick, antagonist series (AID 743412); type: functional, cell-based
[16] = test system: Streptococcus; assay: Group A Streptococcus viability loss, dose response, counter-screen for streptokinase expression inhibitor project, luminescence, BacTiterGlo (AID 1915); type: functional, organism-based;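 note: potency for reduction of bacterial viability or growth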
[17] = human group III sPLA2 inhibitors, dose response, biochemical, QFRET, IC50 (AID 743457);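 note: green fluorescence rise as the enzyme cleaves BODIPY PC-A2 in liposomes; potency for inhibition of the enzyme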
[18] = biological target: T8, Streptokinase A (Streptococcus pyogenes serotype M1, UniProt P10520); assay: S. pyogenes streptokinase expression inhibitors, potency, dose response, plasminogen activation absorbance, OD405 (AID 1914); type: functional, Streptococcus pyogenes M1 GAS;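 note: secreted streptokinase activity via plasminogen activation per viability signal from cell pellet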
T8 sequence (P10520 whole entry): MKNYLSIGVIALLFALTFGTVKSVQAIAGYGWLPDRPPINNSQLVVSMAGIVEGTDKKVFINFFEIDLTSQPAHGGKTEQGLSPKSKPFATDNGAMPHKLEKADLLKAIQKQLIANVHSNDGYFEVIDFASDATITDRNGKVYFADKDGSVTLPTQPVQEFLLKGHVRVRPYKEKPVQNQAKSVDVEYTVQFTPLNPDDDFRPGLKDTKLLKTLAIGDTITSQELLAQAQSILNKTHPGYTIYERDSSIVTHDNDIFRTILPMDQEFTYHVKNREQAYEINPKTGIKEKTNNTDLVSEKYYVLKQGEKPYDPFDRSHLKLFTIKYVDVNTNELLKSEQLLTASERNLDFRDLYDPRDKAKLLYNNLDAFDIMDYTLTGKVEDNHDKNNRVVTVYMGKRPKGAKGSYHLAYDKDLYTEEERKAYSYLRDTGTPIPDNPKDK

[19] = test system: Streptococcus sp. 'group A'; assay: growth inhibition of control SK(-) GAS strain, dose response, counter-screen for streptokinase expression inhibitor project, luminescence, kanamycin, BacTiterGlo, confirmation (AID 1900); type: functional, organism-based

Sequence of Disintegrin and metalloproteinase domain-containing protein 17 (P78536 whole entry, the tested form may be a part): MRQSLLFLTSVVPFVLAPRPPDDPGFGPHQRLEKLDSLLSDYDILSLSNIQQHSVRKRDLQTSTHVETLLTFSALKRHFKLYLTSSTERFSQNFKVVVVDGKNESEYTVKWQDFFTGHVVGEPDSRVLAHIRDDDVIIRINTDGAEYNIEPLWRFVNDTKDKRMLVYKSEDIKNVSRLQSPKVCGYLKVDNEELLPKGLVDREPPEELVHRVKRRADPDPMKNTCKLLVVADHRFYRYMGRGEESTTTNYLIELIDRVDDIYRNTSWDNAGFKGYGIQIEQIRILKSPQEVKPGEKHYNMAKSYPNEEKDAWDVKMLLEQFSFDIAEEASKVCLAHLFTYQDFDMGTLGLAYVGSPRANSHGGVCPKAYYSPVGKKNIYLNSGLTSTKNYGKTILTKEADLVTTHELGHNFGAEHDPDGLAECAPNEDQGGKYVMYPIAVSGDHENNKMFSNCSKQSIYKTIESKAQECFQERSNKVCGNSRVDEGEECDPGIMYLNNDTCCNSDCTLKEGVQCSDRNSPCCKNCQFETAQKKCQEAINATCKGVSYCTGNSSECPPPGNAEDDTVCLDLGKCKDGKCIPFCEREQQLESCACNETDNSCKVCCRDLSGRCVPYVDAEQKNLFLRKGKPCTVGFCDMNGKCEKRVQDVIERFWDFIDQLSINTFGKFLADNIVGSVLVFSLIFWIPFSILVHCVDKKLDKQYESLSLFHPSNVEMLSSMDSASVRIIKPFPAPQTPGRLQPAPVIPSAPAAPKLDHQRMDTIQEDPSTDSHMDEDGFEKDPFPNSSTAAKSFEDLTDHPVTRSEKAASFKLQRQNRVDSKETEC

COc1cc(-c2noc(C)c2/C=C/c2ccc(C(=O)O)cc2)cc(OC)c1OC
AC50 [1]: 23.2 µM (active)

O=C(Nc1ccccn1)c1ccc2ccccc2n1
EC50 [2]: > 67.5 µM (inactive) | EC50 [3]: > 260 µM (inactive) | IC50 [4]: > 67.5 µM (inactive)

Cc1nc2ccc(S(=O)(=O)NCC(=O)NCc3ccc4c(c3)OCO4)cc2s1
IC50 [5]: > 69.5 µM (inactive) | IC50 [6]: > 69.5 µM (inactive)

Nc1c(Br)cc2oc(-c3ccccc3)nc2c1Br
EC50 [7]: > 67.5 µM (inactive) | EC50 [8]: > 67.5 µM (inactive)

Cc1ccc(-c2cc(-c3ccccc3)no2)cc1
EC50 [7]: > 67.5 µM (inactive) | IC50 [9]: 18.6 µM (active) | IC50 [10]: 23.7 µM (active) | IC50 [11]: 14.3 µM (active) | EC50 [8]: > 67.5 µM (inactive) | IC50 [12]: 21.7 µM (active)

Cc1ccc(C(=O)Nc2ccc3c(c2)OCO3)cc1
EC50 [2]: > 67.5 µM (inactive) | IC50 [4]: > 67.5 µM (inactive)

CNCC(O)Cn1c2c(c3ccccc31)CCCC2 (stereo not given)
EC50 [2]: > 67.6 µM (inactive) | IC50 [4]: > 67.6 µM (inactive)

O=C(CN1C(=O)c2ccccc2S1(=O)=O)Nc1cc(S(=O)(=O)N2CCCCC2)ccc1Cl
IC50 [5]: > 69.5 µM (inactive) | IC50 [6]: > 69.5 µM (inactive)

CC(C)(C)[S+]([O-])N1Cc2cc(C(=O)NCC(F)(F)F)nc(-c3cccc(-c4cccc(F)c4)c3)c2[C@H]1CCO (stereo not given in full)
IC50 [5]: > 7.72 µM (active) | IC50 [6]: > 69.5 µM (inactive)

Cc1ccccc1-c1ccc([C@H]2[C@@H](CO)N3CCCCN(S(=O)(=O)c4ccc(F)cc4)C[C@@H]23)cc1
AC50 [13]: 9.92 µM (active) | AC50 [14]: 8.3 µM (active) | AC50 [15]: 19.8 µM (active)

NNC(=O)/C(=N/Nc1ccccc1)S(=O)(=O)c1ccc(Cl)cc1
EC50 [16]: > 150 µM (not active) | IC50 [17]: 47.3 µM (inactive) | EC50 [18]: > 150 µM (not active) | EC50 [19]: 6.91 µM (active)

CCc1nnc(N/N=C/c2cc(C)c(C)cc2C)n1N
AC50 [1]: 39.8 µM (active)
